Measured values from US8314150B2, “Kinase protein binding inhibitors” (priority 2008, dated 2012).

How the values were obtained:
[1] = test system: resistant breast cancer cells with overexpressed Src and activated FAK; assay: Cell viability in resistant breast cancer cells; assay type: cell-based; details: not shown
Method: (§1) Cell Viability Assay—The Cells were treated with peptides for 24 hours at different peptide concentrations. The 3-(4,5-dimethylthiazol-2-yl)-5-(3-carboxymethoxyphenyl)-2-(4-sulfophenyl)-2H-tetrazolium compound from Promega Viability kit (Madison, Ill.) was added, and the cells were incubated at 37° C. for 1-2 hours. The optical density on 96-plate was analyzed with a microplate reader at 490 nm to determine cell viability. In addition, cells were stained with trypan blue after 24 hours of treatment with Y15 and the percent of cells that stained positive were determined with a hemacytometer. […] Then 2% SDS was added to the dried plated and OD at 590 nm was measured for detecting cell adhesion. […] Protein concentrations were determined using a Bio-Rad Kit. The boiled samples were loaded on Ready SDS-10% PAGE gels (Bio Rad, Inc) and used for Western blot analysis with the protein-specific antibody. […] Detachment Assay—Cells were plated with and without inhibitors for 24 hours, and detached and attached cells were counted in a hemocytometer. We calculated the percent of detachment by dividing the number of detached cells by the total number of cells. The percent of detached cells was calculated in three independent experiments. […] For each experiment 300 cells per treatment were counted. […]

VEGFR-3 phosphorylation = assay: Phosphorylation of VEGFR-3 in cells; assay type: cell-based; details: not shown
Method: as §1

[2] = test system: total FAK phosphorylation; assay: FAK immunoprecipitation and Western blotting with P-tyrosine antibody, BT474; assay type: cell-based; details: IP with FAK antibody
Method: as §1

[3] = test system: Y397 phosphorylation of FAK; assay: Western blotting with Y397 FAK antibody, Panc-1 cells; assay type: cell-based, human; details: 24 hours
Method: (§2) Cell Viability Assay—The Cells were treated with peptides for 24 hours at different peptide concentrations. The 3-(4,5-dimethylthiazol-2-yl)-5-(3-carboxymethoxyphenyl)-2-(4-sulfophenyl)-2H-tetrazolium compound from Promega Viability kit (Madison, Ill.) was added, and the cells were incubated at 37° C. for 1-2 hours. The optical density on 96-plate was analyzed with a microplate reader at 490 nm to determine cell viability. In addition, cells were stained with trypan blue after 24 hours of treatment with Y15 and the percent of cells that stained positive were determined with a hemacytometer. Cell adhesion assay—The poly-L-Lysine or Collagen (5 μg/ml) coated 96-well plates were blocked with the blocking buffer (medium with 0.5% BSA) for 1 hour at 37 C. The cells were pre-treated with drugs for 3 hours and plated for adhesion at 4×10^5 cells. Cells were incubated at 37 C for 1 hour, fixed in 3.7% formaldehyde, washed in 0.1% BSA in PBS and stained with crystal violet (5 mg/ml in 2% ethanol) for 10 minutes. Then 2% SDS was added to the dried plated and OD at 590 nm was measured for detecting cell adhesion. […] Protein concentrations were determined using a Bio-Rad Kit. The boiled samples were loaded on Ready SDS-10% PAGE gels (Bio Rad, Inc) and used for Western blot analysis with the protein-specific antibody. […] Detachment Assay—Cells were plated with and without inhibitors for 24 hours, and detached and attached cells were counted in a hemocytometer. We calculated the percent of detachment by dividing the number of detached cells by the total number of cells. The percent of detached cells was calculated in three independent experiments. […] The percent of apoptotic cells was calculated as a ratio of apoptotic detached cells divided by the total number of cells in three independent experiments in several fields with the fluorescent microscope. For each experiment 300 cells per treatment were counted. […]

FAK = biological target: T1, FAK (Homo sapiens, UniProt Q05397); assay: In vitro kinase assay with purified recombinant FAK; assay type: biochemical; details: doses 1-100 μM tested
T1 construct: made in house; host or cells: Baculovirus system
Method: as §1

Panc-1 cells = assay: Apoptosis assay (Hoechst staining), Panc-1; assay type: cell-based, human
Method: as §2

[4] = test system: Panc-1 and Miapaca-2 cells; assay: Trypan blue staining, pancreatic cancer cells; assay type: cell-based, human; details: increasing doses, 24 hours
Method: as §1

[5] = test system: normal breast epithelial cells (MCF10A); assay: Trypan blue staining, normal breast epithelial cells; assay type: cell-based, human; details: doses up to 10 μM
Method: as §1

[6] = test system: BT474 breast cancer cells; assay: BT474 subcutaneous tumor growth in nude mice; assay type: in vivo
Method: as §2, with “counted. In vitro Kinase Assay—10 μCi of [γ-^32P]-ATP in a kinase buffer (20 mM HEPES, pH 7.4, 5 mM MgCl2, 5 mM MnCl2, 0.1 mM Na3VO4 with 0.1 μg of purified FAK protein were incubated in a kinase buffer with 10 μCi of [γ-^32P]-ATP. The kinase reaction was performed for 5 minutes at room temperature and stopped by addition of 2× Laemmli buffer. Proteins were separated on a Ready SDS-10% PAGE gel, and the phosphorylated enolase was visualized by autoradiography. KinaseProfiler screening—Kinase specificity screening was performed with KinaseProfiler™ Service (Millipore) available on http://www.millipore.com/drugdiscovery/dd3/KinaseProfiler.” for “counted.”

Miapaca-2 cells = assay: Detachment assay, Miapaca-2; assay type: cell-based, human
Method: as §1

normal human fibroblasts = assay: Detachment and morphology, normal human fibroblasts; assay type: cell-based; details: doses up to 10 μM
Method: as §1

caspase-3 = assay: Caspase-3 immunohistochemistry of Panc-1 tumors; assay type: in vivo, mice; details: 30 mg/kg, no significant increase
Method: as §1

[7] = Tolerability in nude mice in tumor growth inhibition experiments; assay type: in vivo
Method: as §1

T1 sequence (Q05397 whole entry): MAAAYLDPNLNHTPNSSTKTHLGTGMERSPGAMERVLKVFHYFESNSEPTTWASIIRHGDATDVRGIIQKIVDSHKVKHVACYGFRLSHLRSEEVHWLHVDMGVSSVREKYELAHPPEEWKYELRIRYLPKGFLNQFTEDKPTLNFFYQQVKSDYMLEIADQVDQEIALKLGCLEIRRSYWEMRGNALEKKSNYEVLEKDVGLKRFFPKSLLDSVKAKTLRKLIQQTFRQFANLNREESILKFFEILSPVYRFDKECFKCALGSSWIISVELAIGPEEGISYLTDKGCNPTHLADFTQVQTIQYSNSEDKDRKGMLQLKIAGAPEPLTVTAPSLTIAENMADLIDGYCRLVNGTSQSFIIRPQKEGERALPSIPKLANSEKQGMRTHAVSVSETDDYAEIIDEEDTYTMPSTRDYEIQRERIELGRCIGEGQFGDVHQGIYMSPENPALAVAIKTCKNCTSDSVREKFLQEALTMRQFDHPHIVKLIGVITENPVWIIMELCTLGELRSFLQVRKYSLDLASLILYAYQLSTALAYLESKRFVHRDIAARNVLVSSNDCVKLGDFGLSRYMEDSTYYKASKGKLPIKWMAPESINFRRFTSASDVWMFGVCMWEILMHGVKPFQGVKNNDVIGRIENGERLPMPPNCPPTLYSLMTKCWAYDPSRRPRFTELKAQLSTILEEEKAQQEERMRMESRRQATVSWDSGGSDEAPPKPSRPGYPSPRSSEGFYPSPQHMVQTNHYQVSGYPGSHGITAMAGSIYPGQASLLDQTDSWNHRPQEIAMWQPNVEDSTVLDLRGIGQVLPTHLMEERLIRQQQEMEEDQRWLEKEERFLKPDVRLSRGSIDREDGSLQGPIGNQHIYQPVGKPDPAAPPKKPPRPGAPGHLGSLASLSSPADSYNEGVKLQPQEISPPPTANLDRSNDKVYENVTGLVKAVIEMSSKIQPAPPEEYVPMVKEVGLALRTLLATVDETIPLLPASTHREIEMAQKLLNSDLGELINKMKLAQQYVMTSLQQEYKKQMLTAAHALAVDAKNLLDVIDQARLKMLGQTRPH

For Cl.Cl.Cl.Cl.Nc1cc(N)c(N)cc1N [Y15, 1,2,4,5-benzenetetraamine tetrahydrochloride], which cell viability [1] is on record?
Its cell viability is “effectively blocked cell viability”.

And the “phosphorylation of VEGFR-3” value (VEGFR-3 phosphorylation)?
The value was “did not inhibit”.

What about the “total FAK phosphorylation (P-tyrosine)” value [2] of the same compound?
Its value is “blocked total phosphorylation of FAK”.

What about the “inhibition of Y397 phosphorylation compared with TAE226” value ([3]; 100 μM) of the same compound?
Its value is “same or better inhibition as TAE226”.

And the “dose from which Y397 phosphorylation of FAK was inhibited” value [3]?
The value was 0.1 µM.

What about the “total FAK level” value ([3]; higher doses) of the same compound?
The value was “down regulated”.

What about the “dose from which FAK autophosphorylation activity was directly blocked” value (FAK) of the same compound?
Its value is 1.

What about the “apoptotic nuclei (Hoechst)” value (Panc-1 cells; 50 μM) of the same compound?
Its value is “no detection of apoptotic nuclei”.

What about the increase in apoptosis (Panc-1 cells; 50-100 μM, not significant) of the same compound?
Its increase in apoptosis is “less than 10%”.

And the “cell viability (trypan blue)” value [4]?
The value was “decreased cell viability indicative of necrosis”.

What about the “cell viability (trypan blue)” value [5] of the same compound?
Its value is “no decrease in cell viability”.

What about the tumor growth ([6]; 30 mg/kg IP, 5 days/week) of the same compound?
Its tumor growth is “significantly blocked tumor growth”.

And the “inhibition of tumor growth” value ([6]; 30 mg/kg, alone)?
The value was > 74%.

And the tumor volume ([6]; 30 mg/kg, day 23, vs untreated)?
The tumor volume was “significantly less than in untreated samples”.

And the tumor weight ([6]; 30 mg/kg, day 23, vs untreated mice)?
The tumor weight was “significantly reduced tumor weight”.

And the “dose from which detachment was significant” value (Miapaca-2 cells)?
Its value is 3 µM.

And the “morphology and cell detachment” value (normal human fibroblasts)?
The value was “did not cause a significant change in morphology or increase in cell detachment”.

What about the “apoptotic cells in tumors (caspase-3 staining)” value (caspase-3) of the same compound?
Its value is 6%.

And the optimal non-toxic dose ([7]; IP, nude mice)?
The optimal non-toxic dose was 30 mg/kg.

What about the “animal weight loss or death” value ([7]; intraperitoneal 30 mg/kg, 5 days/week, 36 days) of the same compound?
Its value is “No animal weight loss or death was observed”.
